Data: US20230257480A1, “ENHANCING BLOOD-BRAIN BARRIER DRUG TRANSPORT BY TARGETING ENDOGENOUS REGULATORS” (THE BOARD OF TRUSTEES OF THE LELAND STANFORD JUNIOR …, priority 2019, published 2023)

Columns and labels:
[1] = tested on: cerebrovascular morphology; assay: Cerebrovascular morphology by CD31 staining after ALPL inhibitor treatment; assay type: in vivo; details: aged (22 m.o.) mice, vs vehicle
From the text: FIGS. 14A-14D are graphs illustrating flow cytometry quantification of brain endothelial cell uptake of plasma from young mice (3 m.o.) (FIG. 14A), plasma from aged mice (22 m.o.) (FIG. 14B), human holo-transferrin (hu-Tf) from aged mice (FIG. 14C), or transferrin receptor antibody (TfR Ab) from aged mice (FIG. 14D) treated with vehicle (grey) or anti-ALPL (green) via IP injections twice daily for three days, as assessed by % of BECs that are tracer^+ and relative MFI of tracer^+ BECs (for plasma, n=4; for hu-Tf, n=6 vehicle, n=5 anti-ALPL; for TfR Ab, n=9, two-sided t-test, mean+/−s.e.m.). Tracer refers to plasma, hu-Tf, or TfR Ab. FIG. 14E includes representative images of hu-Tf^+ neurons detected in the cortex of mice treated with ALPL inhibitor. Scale bar=40 microns. […] FIG. 14H includes graphs illustrating flow cytometry quantification of brain endothelial cell and brain parenchymal cell uptake of 3 kDa dextran tracer, which probes for disruptions in paracellular permeability, in young mice (3 m.o.) and aged mice (22 m.o.) (n=6 vehicle, n=5 anti-ALPL, two-sided t-test, mean+/−s.e.m.).
Brain tissue processing, immunohistochemistry, and immunofluorescence experiments were performed as described previously12,13. […] National Institutes of Health ImageJ software was used to quantify the percentage of vasculature (CD31 or AQP4) covered by CD13, AQP4, or ALPL, as described previously63. […]

[2] = tested on: paracellular tight junctions; assay: 3 kDa dextran tracer uptake probing paracellular permeability after ALPL inhibitor treatment; assay type: in vivo; details: young and aged mice, vs vehicle
From the text: FIGS. 14A-14D are graphs illustrating flow cytometry quantification of brain endothelial cell uptake of plasma from young mice (3 m.o.) (FIG. 14A), plasma from aged mice (22 m.o.) (FIG. 14B), human holo-transferrin (hu-Tf) from aged mice (FIG. 14C), or transferrin receptor antibody (TfR Ab) from aged mice (FIG. 14D) treated with vehicle (grey) or anti-ALPL (green) via IP injections twice daily for three days, as assessed by % of BECs that are tracer^+ and relative MFI of tracer^+ BECs (for plasma, n=4; for hu-Tf, n=6 vehicle, n=5 anti-ALPL; for TfR Ab, n=9, two-sided t-test, mean+/−s.e.m.). Tracer refers to plasma, hu-Tf, or TfR Ab. FIG. 14E includes representative images of hu-Tf^+ neurons detected in the cortex of mice treated with ALPL inhibitor. Scale bar=40 microns. FIG. 14F includes graphs showing circulating human holo-transferrin and transferrin receptor antibody in blood plasma upon time of sacrifice to control for and ensure no differences in injected amount (for hu-Tf+, n=6 vehicle, n=5 anti-ALPL; for TfR Ab, n=9, two-sided t-test, mean+/−s.e.m.). […] FIG. 14H includes graphs illustrating flow cytometry quantification of brain endothelial cell and brain parenchymal cell uptake of 3 kDa dextran tracer, which probes for disruptions in paracellular permeability, in young mice (3 m.o.) and aged mice (22 m.o.) (n=6 vehicle, n=5 anti-ALPL, two-sided t-test, mean+/−s.e.m.). […]

For `COc1ccc(OC)c(S(=O)(=O)Nc2cnc3ccccc3c2)c1` [ALPL inhibitor, 2,5-Dimethoxy-N-(quinolin-3-yl)benzenesulfonamide], the vascular morphology [1] was “did not perturb” and the paracellular tight junctions [2] was “did not perturb vascular morphology or compromise”.
